Patent publication US20110282056A1, “PROTEIN KINASE INHIBITORS AND USE THEREOF” (priority 2008, published 2011)

Columns and labels:
Format in all cases: biochemical
Flt3 = target: T1, Flt3 (Homo sapiens, UniProt P36888); test: Flt3 enzyme activity assay (Caliper LC3000 mobility shift); conditions: 350 uM ATP (Km), 3 nM Flt3, 90 minutes at RT
T1 construct: purchased BPS Bioscience; San Diego, Calif; 40225
T1 sequence (P36888 27-993): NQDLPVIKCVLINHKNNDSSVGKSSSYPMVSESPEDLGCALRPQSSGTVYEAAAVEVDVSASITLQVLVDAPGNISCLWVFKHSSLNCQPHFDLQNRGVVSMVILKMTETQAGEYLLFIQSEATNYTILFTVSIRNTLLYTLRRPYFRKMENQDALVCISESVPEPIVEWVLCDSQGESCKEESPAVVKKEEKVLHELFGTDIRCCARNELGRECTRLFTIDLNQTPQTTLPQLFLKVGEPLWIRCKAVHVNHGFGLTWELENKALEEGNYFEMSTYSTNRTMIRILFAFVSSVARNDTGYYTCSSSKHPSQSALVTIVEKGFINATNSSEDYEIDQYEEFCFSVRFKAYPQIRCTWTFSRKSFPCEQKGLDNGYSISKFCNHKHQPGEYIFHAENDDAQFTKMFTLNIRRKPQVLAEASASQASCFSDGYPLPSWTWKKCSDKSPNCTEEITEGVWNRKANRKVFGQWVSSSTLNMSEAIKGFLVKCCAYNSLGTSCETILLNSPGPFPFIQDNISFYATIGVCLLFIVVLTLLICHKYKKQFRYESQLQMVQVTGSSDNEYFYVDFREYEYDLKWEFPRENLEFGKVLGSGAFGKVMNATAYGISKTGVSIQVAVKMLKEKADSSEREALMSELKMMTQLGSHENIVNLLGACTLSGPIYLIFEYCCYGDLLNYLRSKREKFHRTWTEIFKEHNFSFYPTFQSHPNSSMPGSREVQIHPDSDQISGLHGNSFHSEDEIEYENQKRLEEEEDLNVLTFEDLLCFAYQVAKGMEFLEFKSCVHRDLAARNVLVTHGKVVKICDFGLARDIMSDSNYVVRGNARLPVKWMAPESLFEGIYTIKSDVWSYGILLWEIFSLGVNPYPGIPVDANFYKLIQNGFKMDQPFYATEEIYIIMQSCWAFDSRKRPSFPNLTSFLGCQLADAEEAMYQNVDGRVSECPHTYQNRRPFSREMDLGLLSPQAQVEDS
Protocol: (§1) Enzyme activity for VEGFR3, VEGFR2 and Flt3 were measured on the Caliper Life Sciences LC3000 (Hopkinton, Mass.). The system utilizes the principle of electroosmotic flow to separate and quantify the amount of phosphorylated-Fluorescein-labelled-peptide (product) from unphosphorylated-Fluorescein-labelled peptide (substrate). The amount of product and substrate are determined by measuring the peak heights from the electropherogram. The enzyme activity is then quantified by dividing the amount of product by the sum of the product and substrate. The inhibitory activity of a sample is measured by comparing the enzyme activity in the presence of sample versus the enzyme activity in the presence of dimethylsufoxide (DMSO). Specific assay conditions for each enzyme are listed below:
(§2) Flt3 assay: The peptide substrate at 1 uM (FITC-AHA-UEAIYAAPFAKKK-CONH2; synthesized at Tufts University, Boston, Mass.) was incubated with 350 uM of ATP, corresponding to the Michaelis-Menten (Km) constant of the enzyme/substrate reaction, and 3 nM of Flt3 (BPS Bioscience; San Diego, Calif.; Cat. No. 40225) for 90 minutes at RT. After 90 minutes, the reaction was stopped by the addition of 10 mM EDTA. The substrate and product were then separated on the LC3000.

VEGFR3 = target: T2, VEGFR3 (Homo sapiens, UniProt P35916); test: VEGFR3 enzyme activity assay (Caliper LC3000 mobility shift); conditions: 400 uM ATP (Km), 0.4 nM VEGFR3, 90 minutes at RT
T2 construct: purchased Millpore Corp. (Millipore) 14-681
Protocol: as §1
VEGFR3 assay: The peptide substrate at 1 uM (FITC-KKKKEEIYFFF-CONH2; synthesized at Tufts University, Boston, Mass.) was incubated with 400 uM of ATP, corresponding to the Michaelis-Menten (Km) constant of the enzyme/substrate reaction, and 0.4 nM of VEGFR3 (Millpore Corp., Cat. No. 14-681) for 90 minutes at RT. After 90 minutes, the reaction was stopped by the addition of 10 mM EDTA. The substrate and product were then separated on the LC3000.

VEGFR2 = target: T3, VEGFR2 (Homo sapiens, UniProt P35968); test: VEGFR2 enzyme activity assay (Caliper LC3000 mobility shift); conditions: 160 uM ATP (Km), 1 nM VEGFR2, 90 minutes at RT
T3 construct: purchased BPS Bioscience; San Diego, Calif; 40301
Protocol: as §1
as §2, with “VEGFR2 assay:” for “Flt3 assay:”, “uM (5-FL-EEPLYWSFPAKKK-CONH2;” for “uM (FITC-AHA-UEAIYAAPFAKKK-CONH2;”, “with 160” for “with 350”, “and 1” for “and 3”, “of VEGFR2” for “of Flt3”, “No. 40301)” for “No. 40225)”

T3 sequence (P35968 20-1356): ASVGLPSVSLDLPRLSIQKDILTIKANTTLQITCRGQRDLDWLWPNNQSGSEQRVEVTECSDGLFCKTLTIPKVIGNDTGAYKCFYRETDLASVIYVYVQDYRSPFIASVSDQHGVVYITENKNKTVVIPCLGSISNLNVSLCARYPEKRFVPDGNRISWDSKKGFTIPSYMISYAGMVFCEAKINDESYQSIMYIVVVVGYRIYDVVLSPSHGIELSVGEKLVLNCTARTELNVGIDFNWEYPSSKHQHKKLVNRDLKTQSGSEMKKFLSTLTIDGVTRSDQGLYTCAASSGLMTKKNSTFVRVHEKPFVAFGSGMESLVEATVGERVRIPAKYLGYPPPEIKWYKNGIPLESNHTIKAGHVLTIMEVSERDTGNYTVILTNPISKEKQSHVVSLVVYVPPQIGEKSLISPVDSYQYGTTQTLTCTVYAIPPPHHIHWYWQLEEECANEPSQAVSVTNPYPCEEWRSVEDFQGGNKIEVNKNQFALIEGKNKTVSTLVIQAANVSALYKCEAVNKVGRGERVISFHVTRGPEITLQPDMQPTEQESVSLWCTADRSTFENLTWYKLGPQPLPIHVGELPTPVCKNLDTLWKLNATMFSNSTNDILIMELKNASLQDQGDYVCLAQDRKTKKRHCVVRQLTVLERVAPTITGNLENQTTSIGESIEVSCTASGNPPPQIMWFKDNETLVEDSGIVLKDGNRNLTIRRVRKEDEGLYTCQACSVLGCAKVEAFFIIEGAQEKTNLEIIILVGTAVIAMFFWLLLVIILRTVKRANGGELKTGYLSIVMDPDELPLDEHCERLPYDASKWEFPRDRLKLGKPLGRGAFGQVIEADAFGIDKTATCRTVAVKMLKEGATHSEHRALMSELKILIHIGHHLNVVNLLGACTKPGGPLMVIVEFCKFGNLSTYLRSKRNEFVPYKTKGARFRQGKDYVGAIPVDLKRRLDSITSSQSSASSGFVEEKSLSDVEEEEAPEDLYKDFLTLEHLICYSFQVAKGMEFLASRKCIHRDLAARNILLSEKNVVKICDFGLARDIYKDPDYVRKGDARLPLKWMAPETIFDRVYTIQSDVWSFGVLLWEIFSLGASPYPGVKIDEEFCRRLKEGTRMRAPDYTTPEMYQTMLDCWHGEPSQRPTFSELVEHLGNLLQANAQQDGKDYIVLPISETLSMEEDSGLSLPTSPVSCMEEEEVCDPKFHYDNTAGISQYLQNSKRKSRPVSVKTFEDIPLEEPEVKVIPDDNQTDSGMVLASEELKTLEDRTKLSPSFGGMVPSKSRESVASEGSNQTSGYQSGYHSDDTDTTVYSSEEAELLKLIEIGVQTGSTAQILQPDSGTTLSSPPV
T2 sequence (P35916 25-1363): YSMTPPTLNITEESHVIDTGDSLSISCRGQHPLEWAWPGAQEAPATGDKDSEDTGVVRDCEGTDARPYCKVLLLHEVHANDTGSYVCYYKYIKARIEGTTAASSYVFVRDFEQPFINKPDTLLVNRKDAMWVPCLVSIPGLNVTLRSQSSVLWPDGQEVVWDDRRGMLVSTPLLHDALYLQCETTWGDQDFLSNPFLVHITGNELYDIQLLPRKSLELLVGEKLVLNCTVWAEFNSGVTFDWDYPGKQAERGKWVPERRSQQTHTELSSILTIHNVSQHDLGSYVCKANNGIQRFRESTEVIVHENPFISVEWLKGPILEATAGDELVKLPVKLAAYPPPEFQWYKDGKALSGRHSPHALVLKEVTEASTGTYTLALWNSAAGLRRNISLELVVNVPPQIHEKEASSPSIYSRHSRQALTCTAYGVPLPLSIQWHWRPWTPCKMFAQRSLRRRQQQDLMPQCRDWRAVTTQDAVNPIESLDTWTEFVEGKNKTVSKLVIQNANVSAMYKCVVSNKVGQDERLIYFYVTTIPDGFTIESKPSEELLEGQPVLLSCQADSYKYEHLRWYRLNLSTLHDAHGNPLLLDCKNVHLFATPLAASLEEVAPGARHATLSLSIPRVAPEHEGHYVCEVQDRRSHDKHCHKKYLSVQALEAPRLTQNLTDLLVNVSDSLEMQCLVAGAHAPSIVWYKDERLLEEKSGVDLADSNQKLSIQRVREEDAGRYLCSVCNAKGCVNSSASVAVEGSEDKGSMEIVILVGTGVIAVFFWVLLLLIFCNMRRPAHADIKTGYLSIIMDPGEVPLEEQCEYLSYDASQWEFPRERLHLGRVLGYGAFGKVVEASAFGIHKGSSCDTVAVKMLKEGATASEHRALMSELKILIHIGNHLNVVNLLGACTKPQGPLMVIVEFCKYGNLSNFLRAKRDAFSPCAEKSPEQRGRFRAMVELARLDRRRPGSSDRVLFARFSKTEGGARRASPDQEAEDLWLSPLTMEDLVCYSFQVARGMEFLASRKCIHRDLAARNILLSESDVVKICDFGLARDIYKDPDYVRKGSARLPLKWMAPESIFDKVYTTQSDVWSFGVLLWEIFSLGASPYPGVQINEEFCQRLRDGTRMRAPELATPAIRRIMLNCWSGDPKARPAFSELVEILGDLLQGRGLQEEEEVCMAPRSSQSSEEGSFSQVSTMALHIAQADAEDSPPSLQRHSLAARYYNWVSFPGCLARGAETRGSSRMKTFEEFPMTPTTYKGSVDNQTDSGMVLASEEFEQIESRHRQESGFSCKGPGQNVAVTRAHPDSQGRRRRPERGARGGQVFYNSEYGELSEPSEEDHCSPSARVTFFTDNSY

**Q.** What does the source list for `C(#Cc1ccnc2[nH]ccc12)c1cncnc1` [compound 83]?
**A.** IC50 (Flt3): > 1000 nM; IC50 (VEGFR3): > 1000 nM; IC50 (VEGFR2): > 1000 nM

**Q.** Which IC50 (Flt3) does the source give for `C(#Cc1ccnc2[nH]ccc12)c1ccc2cc[nH]c2c1` [compound 88] here?
**A.** > 1000 nM

**Q.** What about the IC50 (VEGFR3) of the same compound?
**A.** > 1000 nM

**Q.** What about the IC50 (VEGFR2) of the same compound?
**A.** > 1000 nM

**Q.** What does the source list for `C(#Cc1ccnc2[nH]ccc12)c1cccc(N2CCOCC2)c1` [compound 47]?
**A.** IC50 (Flt3): > 1000 nM; IC50 (VEGFR3): 100 to 1000 nM; IC50 (VEGFR2): > 1000 nM

**Q.** `C(#Cc1ccnc2[nH]ccc12)c1ccc(N2CCOCC2)cc1` [compound 128] was tested. Which IC50 (Flt3) did it give?
**A.** > 1000 nM

**Q.** What about the IC50 (VEGFR3) of the same compound?
**A.** > 1000 nM

**Q.** And the IC50 (VEGFR2)?
**A.** > 1000 nM

**Q.** `FC(F)(F)c1ccc(C#Cc2ccnc3[nH]ccc23)cc1` [compound 135] was tested. Which IC50 (Flt3) did it give?
**A.** > 1000 nM

**Q.** What about the IC50 (VEGFR3) of the same compound?
**A.** > 1000 nM

**Q.** What about the IC50 (VEGFR2) of the same compound?
**A.** > 1000 nM

**Q.** For `C(#Cc1ccnc2[nH]ccc12)c1ccc2c(c1)OCO2` [compound 72], which IC50 (Flt3) is on record?
**A.** > 1000 nM

**Q.** What about the IC50 (VEGFR3) of the same compound?
**A.** 100 to 1000 nM

**Q.** What about the IC50 (VEGFR2) of the same compound?
**A.** > 1000 nM

**Q.** With `Cc1cccc(C)c1C#Cc1ccnc2[nH]ccc12` [compound 117] as the compound, how does the IC50 (Flt3) read?
**A.** > 1000 nM

**Q.** And the IC50 (VEGFR3)?
**A.** > 1000 nM

**Q.** And the IC50 (VEGFR2)?
**A.** > 1000 nM

**Q.** How did the IC50 (Flt3) turn out when `FC(F)(F)Oc1ccccc1C#Cc1ccnc2[nH]ccc12` [compound 78] was run?
**A.** > 1000 nM

**Q.** What about the IC50 (VEGFR3) of the same compound?
**A.** > 1000 nM

**Q.** What about the IC50 (VEGFR2) of the same compound?
**A.** > 1000 nM

**Q.** What does the source list for `C(#Cc1ccnc2[nH]ccc12)c1cccc(-n2cccc2)c1` [compound 92]?
**A.** IC50 (Flt3): > 1000 nM; IC50 (VEGFR3): > 1000 nM; IC50 (VEGFR2): > 1000 nM

**Q.** For `NCc1ccccc1C#Cc1ccnc2[nH]ccc12` [compound 118], which IC50 (Flt3) is on record?
**A.** > 1000 nM

**Q.** What about the IC50 (VEGFR3) of the same compound?
**A.** > 1000 nM

**Q.** What about the IC50 (VEGFR2) of the same compound?
**A.** > 1000 nM

**Q.** For `C(#Cc1ccnc2[nH]ccc12)c1ccccc1-c1ccccc1` [compound 127], which IC50 (Flt3) is on record?
**A.** > 1000 nM

**Q.** And the IC50 (VEGFR3)?
**A.** > 1000 nM

**Q.** What about the IC50 (VEGFR2) of the same compound?
**A.** > 1000 nM

**Q.** What does the source list for `N#CCc1ccc(C#Cc2ccnc3[nH]ccc23)cc1` [compound 61]?
**A.** IC50 (Flt3): 100 to 1000 nM; IC50 (VEGFR3): 100 to 1000 nM; IC50 (VEGFR2): > 1000 nM

**Q.** How did the IC50 (Flt3) turn out when `Cc1ccc(C#Cc2ccnc3[nH]ccc23)cc1` [compound 70] was run?
**A.** > 1000 nM

**Q.** What about the IC50 (VEGFR3) of the same compound?
**A.** 100 to 1000 nM

**Q.** What about the IC50 (VEGFR2) of the same compound?
**A.** > 1000 nM

**Q.** With `C=Cc1cccc(C#Cc2ccnc3[nH]ccc23)c1` [compound 65] as the compound, how does the IC50 (Flt3) read?
**A.** > 1000 nM

**Q.** What about the IC50 (VEGFR3) of the same compound?
**A.** 100 to 1000 nM

**Q.** What about the IC50 (VEGFR2) of the same compound?
**A.** > 1000 nM

**Q.** For `COc1ccccc1C#Cc1ccnc2[nH]ccc12` [compound 52], which IC50 (Flt3) is on record?
**A.** > 1000 nM

**Q.** And the IC50 (VEGFR3)?
**A.** 100 to 1000 nM

**Q.** And the IC50 (VEGFR2)?
**A.** > 1000 nM

**Q.** For `C(#Cc1ccnc2[nH]ccc12)c1ccc(-c2nnc(-c3ccccc3)o2)cc1` [compound 131], which IC50 (Flt3) is on record?
**A.** > 1000 nM

**Q.** And the IC50 (VEGFR3)?
**A.** > 1000 nM

**Q.** What about the IC50 (VEGFR2) of the same compound?
**A.** > 1000 nM

**Q.** Which IC50 (Flt3) does the source give for `Nc1ccc(C#Cc2cnc3[nH]ccc3c2)cc1` [compound 79] here?
**A.** 100 to 1000 nM

**Q.** And the IC50 (VEGFR3)?
**A.** > 1000 nM

**Q.** What about the IC50 (VEGFR2) of the same compound?
**A.** > 1000 nM

**Q.** What does the source list for `CC(C)Oc1cccc(C#Cc2ccnc3[nH]ccc23)c1` [compound 102]?
**A.** IC50 (Flt3): > 1000 nM; IC50 (VEGFR3): > 1000 nM; IC50 (VEGFR2): > 1000 nM

**Q.** What does the source list for `O=C(Cc1ccccc1C#Cc1ccnc2[nH]ccc12)N1CCC(F)(F)CC1` [compound 121]?
**A.** IC50 (Flt3): > 1000 nM; IC50 (VEGFR3): > 1000 nM; IC50 (VEGFR2): > 1000 nM

**Q.** How did the IC50 (Flt3) turn out when `COc1ccc(CNC(=O)Cc2ccccc2C#Cc2ccnc3[nH]ccc23)cc1` [compound 75] was run?
**A.** > 1000 nM

**Q.** What about the IC50 (VEGFR3) of the same compound?
**A.** > 1000 nM

**Q.** What about the IC50 (VEGFR2) of the same compound?
**A.** > 1000 nM

**Q.** For `COc1ccc(OC)c(C#Cc2ccnc3[nH]ccc23)c1` [compound 73], which IC50 (Flt3) is on record?
**A.** > 1000 nM

**Q.** And the IC50 (VEGFR3)?
**A.** 100 to 1000 nM

**Q.** What about the IC50 (VEGFR2) of the same compound?
**A.** > 1000 nM

**Q.** Which IC50 (Flt3) does the source give for `N#Cc1cncc(C#Cc2ccnc3[nH]ccc23)c1` [compound 91] here?
**A.** > 1000 nM

**Q.** What about the IC50 (VEGFR3) of the same compound?
**A.** > 1000 nM

**Q.** And the IC50 (VEGFR2)?
**A.** > 1000 nM

**Q.** For `C(#Cc1ccnc2[nH]ccc12)c1ccoc1` [compound 44], which IC50 (Flt3) is on record?
**A.** > 1000 nM

**Q.** What about the IC50 (VEGFR3) of the same compound?
**A.** 100 to 1000 nM

**Q.** And the IC50 (VEGFR2)?
**A.** > 1000 nM
